Reference: patent US10662194B2, “Substituted 6-anilino-9-heterocyclylpurine derivatives for inhibition of plant stress” (UNIVERZITA PALACKEHO V OLOMOUCI, priority 2014, dated 2020)

Legend:
[1] = biological target: T1, AHK3 (Arabidopsis thaliana, UniProt Q9C5U1); assay: Escherichia coli cytokinin receptor activation assay (AHK3); type: cell-based; conditions: 10^−7 M-5×10^−5 M, compared to trans-zeatin, FIG. 1
T1 construct: expressed in transfected cells; host or cells: Escherichia coli strain KMI001
T1 sequence (Q9C5U1 1-1036): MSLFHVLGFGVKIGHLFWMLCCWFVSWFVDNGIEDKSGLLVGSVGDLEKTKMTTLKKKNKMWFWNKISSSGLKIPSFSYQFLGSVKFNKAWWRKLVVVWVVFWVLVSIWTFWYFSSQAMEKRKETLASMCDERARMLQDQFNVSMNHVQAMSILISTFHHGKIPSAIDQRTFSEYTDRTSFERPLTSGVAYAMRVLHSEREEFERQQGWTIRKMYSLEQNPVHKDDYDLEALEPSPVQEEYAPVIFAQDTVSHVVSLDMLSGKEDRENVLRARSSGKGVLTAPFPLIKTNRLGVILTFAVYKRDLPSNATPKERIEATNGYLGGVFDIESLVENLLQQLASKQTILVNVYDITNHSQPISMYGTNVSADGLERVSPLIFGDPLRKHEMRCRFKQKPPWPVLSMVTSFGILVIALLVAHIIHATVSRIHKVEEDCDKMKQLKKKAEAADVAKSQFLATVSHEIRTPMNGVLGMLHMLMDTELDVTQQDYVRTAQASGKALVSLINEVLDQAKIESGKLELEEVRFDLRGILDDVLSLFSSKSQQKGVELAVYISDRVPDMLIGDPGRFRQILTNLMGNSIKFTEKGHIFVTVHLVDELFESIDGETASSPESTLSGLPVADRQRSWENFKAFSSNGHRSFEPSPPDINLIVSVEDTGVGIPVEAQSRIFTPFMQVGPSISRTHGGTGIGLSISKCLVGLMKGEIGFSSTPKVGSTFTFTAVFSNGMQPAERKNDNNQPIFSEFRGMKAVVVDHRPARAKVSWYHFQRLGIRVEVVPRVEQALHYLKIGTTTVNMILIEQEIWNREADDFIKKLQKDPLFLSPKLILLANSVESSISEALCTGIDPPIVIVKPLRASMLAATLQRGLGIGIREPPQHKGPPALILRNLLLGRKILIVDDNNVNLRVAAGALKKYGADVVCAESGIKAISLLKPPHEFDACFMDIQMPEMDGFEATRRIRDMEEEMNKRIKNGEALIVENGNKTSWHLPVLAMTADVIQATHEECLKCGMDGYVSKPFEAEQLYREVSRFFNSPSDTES
Description: (§1) Escherichia coli strains KMI001 harbouring the plasmid pIN-III-AHK4 or pSTV28-AHK3 were grown overnight at 25° C. in M9 media enriched with 0.1% casamino acids to OD600˜1. The preculture was diluted 1:600 in 1 ml M9 medium containing 0.1% casamino acids and 1 μL stock solution of either the tested compound (10^−7 M-5×10^−5 M) or solvent control (DMSO, ethanol, methanol) were added. The cultures were further grown at 25° C. in microtiter plate, 200 μL per well. […] The cultures were centrifuged and 50 μL aliquots of the supernatant were transferred to microtiter plate containing 2 μL 50 mM 4-methyl umbelliferyl galactoside which was subsequently incubated for 1 h at 37° C. The reaction was stopped by adding 100 μL 0.2 M Na2CO3. Fluorescence was measured using a Fluoroscan Ascent (Labsystems, Finland) at the excitation and emission wavelengths of 365 and 460 nm, respectively. The OD600 of remaining culture was determined and β-galactosidase activity was calculated as nmol 4-methylumbelliferone×OD600^−1×h^−1.

[2] = biological target: T2, CRE1/AHK4 (Arabidopsis thaliana, UniProt Q9C5U0); assay: Escherichia coli cytokinin receptor activation assay (CRE1/AHK4); type: cell-based; conditions: 10^−7 M-5×10^−5 M, compared to trans-zeatin, FIG. 1
T2 construct: expressed in transfected cells; host or cells: Escherichia coli strain KMI001
T2 sequence (Q9C5U0 whole entry): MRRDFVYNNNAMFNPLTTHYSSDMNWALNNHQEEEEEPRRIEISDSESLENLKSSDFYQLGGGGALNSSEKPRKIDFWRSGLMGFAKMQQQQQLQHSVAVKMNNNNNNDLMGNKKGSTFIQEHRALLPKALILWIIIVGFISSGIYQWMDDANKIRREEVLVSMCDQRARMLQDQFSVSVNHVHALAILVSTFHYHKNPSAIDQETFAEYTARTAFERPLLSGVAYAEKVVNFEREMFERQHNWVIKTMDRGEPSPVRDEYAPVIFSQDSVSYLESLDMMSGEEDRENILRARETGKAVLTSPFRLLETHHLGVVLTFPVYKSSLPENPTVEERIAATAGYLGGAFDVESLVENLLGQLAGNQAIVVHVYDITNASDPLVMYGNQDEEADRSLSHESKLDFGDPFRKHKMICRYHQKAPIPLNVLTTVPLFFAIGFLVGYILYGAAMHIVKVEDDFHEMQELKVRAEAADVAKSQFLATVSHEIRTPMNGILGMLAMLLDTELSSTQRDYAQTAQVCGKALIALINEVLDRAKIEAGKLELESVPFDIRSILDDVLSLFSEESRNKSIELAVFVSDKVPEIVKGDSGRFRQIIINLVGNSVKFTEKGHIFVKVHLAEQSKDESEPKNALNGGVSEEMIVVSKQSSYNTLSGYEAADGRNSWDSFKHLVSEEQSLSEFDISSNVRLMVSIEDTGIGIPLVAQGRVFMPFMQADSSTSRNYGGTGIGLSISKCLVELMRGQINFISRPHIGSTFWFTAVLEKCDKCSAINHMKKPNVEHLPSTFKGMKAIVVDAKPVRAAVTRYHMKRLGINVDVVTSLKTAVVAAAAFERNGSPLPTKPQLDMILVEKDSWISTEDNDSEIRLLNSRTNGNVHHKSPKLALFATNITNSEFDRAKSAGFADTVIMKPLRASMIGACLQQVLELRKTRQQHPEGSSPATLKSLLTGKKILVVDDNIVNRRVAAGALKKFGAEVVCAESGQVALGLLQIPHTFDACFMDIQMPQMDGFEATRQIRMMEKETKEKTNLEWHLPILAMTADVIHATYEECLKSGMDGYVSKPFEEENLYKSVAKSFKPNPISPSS
Description: as §1

[3] = system: ARR5:GUS reporter gene; assay: Induction of cytokinin reporter ARR5:GUS in transgenic Arabidopsis plants; type: in vivo; conditions: 0.01-10 μM, 17 h, FIG. 2
Description: Cytokinins induce in Arabidopsis transcription of gene ARR5, a member of A-type response regulator family classified as cytokinin primary response genes being expressed down-stream of sensing by cytokinin receptors. We cultivated transgenic Arabidopsis plants harbouring PARR5::GUS reporter (D'Agostino et al. Plant Physiol. 124: 1706-1717, 2000) in MS medium containing cytokinin BAP, CKX inhibitor INCYDE and novel compounds 12 and 91 in concentrations 0.01, 0.1, 1, 5, 10 μM; DMSO (0.1%) was tested as solvent control. Seeds were surface-sterilized in 70% ethanol and then placed into wells of 6-well microtiter plate (TPP, Switzerland) containing 3 mL of MS medium in each well. After sowing plates were pretreated in dark at 4° C. to synchronize the germination of the seeds. […] Quantitative estimation of the level of ARR5:GUS gene induction was done according to method published by Romanov et al. (Romanov et al. FEBS Letters 515: 39-43, 2002). After extraction of proteins the GUS activity was determined using incubation with fluorogenic substrate MUG (4-methylumbelliferyl glucuronid; 1 h, 37° C.) and then fluorescence 365 nm and 460 nm (excitation and emission wavelengths) was recorded, as described in detail by Spíchal et al. (Spíchal et al. Plant and Cell Physiology 45: 1299-1305, 2004).

[4] = system: shoot rosettes of Arabidopsis; assay: Leaf chlorophyll degradation in dark-incubated shoot rosettes; type: in vivo; conditions: 6 days in the dark
Description: The effect of the compound 12 on retention of chlorophyll in the dark treated plants was tested using app. 18 DAG (days after germination) old Arabidopsis plants grown in vitro on standard MS medium (16 h/8 h light/dark regime, light intensity 120 μmol·m^−l·s^−1). Shoots of the plants were excised from the roots and the whole rossetes were placed into 6-well plate (one rosete per well) into water (3 mL per well) containing 0.01% DMSO (solvent control), or compound 12, cytokinin BAP and CKX inhibitor INCYDE (2-chloro-6-(3-methoxyanilino)purine), in concentrations of 0.01, 0.1, 1 and 10 μM. The plates were then incubated in the dark for 6 days at 25° C. After incubation chlorophyll from each rosette was extracted into 1.8 mL of 80% ethanol, during 30 min of heating to 80° C. The chlorophyll content in extracts was measured spectrofotometricaly at 665 nm. […] In this concentration the rosettes kept around 95% of chlorophyll.

[5] = system: Salmonella typhimurium strains TA100 and TA98; assay: Ames MPF 98/100 Mutagenicity Assay; type: cell-based; conditions: up to 100 μM, +/−S9, FIG. 12
Description: The compound 12 was tested using Ames MPF™ 98/100 Mutagenicity Assay kit (Aniara, Ohio) that is employing Salmonella typhimurium strains TA100 (for the detection of base substitution mutations) and TA98 (for the detection of frameshift mutations) according to the instructions for use.

COc1cccc(Nc2nc(Cl)nc3c2ncn3C2CCCCO2)c1 (stereo not drawn) [compound 12, 2-chloro-6-(3-methoxyanilino)-9-(tetrahydropyran-2-yl)purine]
ability to activate cytokinin receptor AHK3 [1]: very low ability to activate | ability to activate cytokinin receptor CRE1/AHK4 [2]: very low ability to activate | induction of ARR5:GUS expression [3]: dose-dependent induction of ARR5:GUS expression | chlorophyll kept in rosettes ([4]; 1 μM): around 95% | retention of chlorophyll, activity versus BAP and INCYDE ([4]; 0.01-10 μM, FIG. 7): highest activity in 1 μM concentration | mutagenic potential in Ames test [5]: did not score positively
